The text below walks through data of US20070027118A1 (priority 2005, published 2007).

11β-hsd-1 enzyme, sequence (P28845 whole entry, species assumed): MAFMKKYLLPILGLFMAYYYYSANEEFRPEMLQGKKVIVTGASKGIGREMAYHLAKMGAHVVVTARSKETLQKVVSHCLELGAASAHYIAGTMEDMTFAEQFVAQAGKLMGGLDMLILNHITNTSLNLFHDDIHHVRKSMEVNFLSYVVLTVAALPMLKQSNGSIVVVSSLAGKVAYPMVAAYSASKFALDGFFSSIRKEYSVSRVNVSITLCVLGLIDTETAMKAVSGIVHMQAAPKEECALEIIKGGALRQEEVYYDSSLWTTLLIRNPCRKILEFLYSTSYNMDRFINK

The first assay has as its target 11β-hsd-1 enzyme (Homo sapiens, UniProt P28845). The assay is described as follows: biochemical. The following applies: Table 2; inhibitor 0.1 mM as printed. The procedure: Percentage of inhibition was determined in a 100 mM Triethanolamine buffer, pH 8.0, 200 mM NaCl, 0.02% n-dodecyl β-D-maltoside and 5 mM β-ME. A typical reaction was carried on a Corning® u-bottom 96-well plate and is described as follows: 11β-hsd-1 enzyme (5 nM, final concentration) was pre-incubated in the presence of the inhibitor and NADPH (500 μM, final concentration) for at least 30 minutes
in the assay buffer. When pre-incubation was completed, the reaction was initiated by adding the regenerating system (2 mM Glucose-6-Phosphate, 1U/mL Glucose-6-Phosphate dehydrogenase, and 6 mM MgCl2, all the concentration reported are final in the assay buffer), and 3H-cortisone (200 nM, final concentration). After 60 minutes, 60 μL of the assay mixture was transferred to a second 96-well plate and mixed with an equal volume of dimethylsulfoxide to stop the reaction. A 15 μL aliquot from the reaction mixture was loaded into a C-18 column (Polaris C18-A, 50×4.6 mm, 5 μ, 180 Angstrom from Varian) connected to an automated High-throughput Liquid Chromatography instrument developed by Cohesive Technologies Inc of Franklin, Mass., with a […] model 3 Radio-HPLC detector from IN/US of Tampa, Fla. The substrate and product peaks were separated by using an isocratic mixture of 43:57 methanol to water (v/v) at a flow rate of 1.0 mL/min.
Percent Inhibition was calculated based on the following equation: (1-(3H-Cortisol peak area in the […] of inhibitor)×100).
Turning to `CCc1cccc(NS(=O)(=O)N2C[C@@H]3[C@H](C2)C3(C#N)N2CCOCC2)n1` (stereo partly drawn) [Example 115, (1R*5S*6S*)-6-cyano-N-(6-ethylpyridin-2-yl)-6-morpholin-4-yl-3-azabicyclo[3.1.0]hexane-3-sulfonamide], the “% Inh @ 0.1 mM” value is given as 0%.

The same assay, now with this note: read-out: % Inh @ 0.1 μM.
As for `Cc1cccc(NS(=O)(=O)N2CCN(c3ncccc3C)CC2)n1` [Example 4], the inhibition at 0.1 µM was 26.6%.
The same measure, in the same setting: with `Cc1cccc(NS(=O)(=O)N2CCN(c3ncccc3C(F)(F)F)CC2)n1` [Example 5] the figure was 44.6%; with `Cc1ccnc(N2CCN(S(=O)(=O)Nc3cccc(C)n3)CC2)c1` [Example 6], 56.2%; with `Cc1cccc(NS(=O)(=O)N2CCN(Cc3ccccc3)CC2)n1` [Example 7], 17.7%.
Regarding `Cc1cccc(NS(=O)(=O)N2CCOCC2c2ccc(F)cc2)n1` (stereo not drawn) [Example 21], the inhibition at 0.1 µM turned out to be 10.6%.
For `Cc1cccc(NS(=O)(=O)N2C[C@H]3C[C@@H]2CN3c2ccc(C#N)cn2)n1` [Example 24], the inhibition at 0.1 µM worked out at 0%.
On the same count and under the same terms, the same measure for `O=S(=O)(Nc1ccc2ncccc2n1)N1CCC(c2ccc(C(F)(F)F)cn2)CC1` [Example 36, N-1,5-naphthyridin-2-yl-4-[5-(trifluoromethyl)pyridin-2-yl]piperidine-1-sulfonamide]: 89%; for `C[C@@H]1CN(S(=O)(=O)Nc2cccc(CO)n2)CCN1c1ncc(F)cn1` [Example 40, (3R)-4-(5-fluoropyrimidin-2-yl)-N-[6-(hydroxymethyl)pyridin-2-yl]-3-methylpiperazine-1-sulfonamide]: 100%; for `Cc1cc(C)nc(NS(=O)(=O)N2CCc3ccc(S(C)(=O)=O)cc3CC2)c1` [Example 41]: 55%.
For `Cc1cc(N)nc(NS(=O)(=O)N2CCn3c(nc4cc(C(F)(F)F)ccc43)C2)c1` [Example 47], the inhibition at 0.1 µM was 100%.
On the same count and under the same terms, with `Cc1cc(N)nc(NS(=O)(=O)N2CCn3c(nc4cc(Cl)ccc43)C2)c1` [Example 48] the figure was 100%.
Still for that read-out and setting: the same measure for `Cc1cc(N)nc(NS(=O)(=O)N2CCn3c(nc4cccc(C)c43)C2)c1` [Example 49]: 100%.
Take `Cc1cc(N)nc(NS(=O)(=O)N2CCn3c(nc4ccccc43)C2)c1` [Example 50]: the inhibition at 0.1 µM worked out at 100%.
On to `Cc1cc(N)nc(NS(=O)(=O)N2CCn3cc(C(F)(F)F)nc3C2)c1` [Example 51], for which the inhibition at 0.1 µM stood at 38%.
For `Cc1cc(N)nc(NS(=O)(=O)N2CCn3c(-c4ccccc4)cnc3C2)c1` [Example 52], the inhibition at 0.1 µM worked out at 100%.
Still for that read-out and setting: with `Cc1cc(N)cc(NS(=O)(=O)N2CCC(Oc3ccccc3F)CC2)c1` [Example 53] the figure was 100%; with `Cc1cc(N)cc(NS(=O)(=O)N2CCC(Oc3cccc(F)c3)CC2)c1` [Example 54], 100%.
`Cc1cc(N)cc(NS(=O)(=O)N2CCC(Oc3ccccc3)CC2)c1` [Example 55]: the inhibition at 0.1 µM amounted to 92%.
Same read-out and setting: with `Cc1cc(N)cc(NS(=O)(=O)N2CCC(C(F)(F)F)CC2)c1` [Example 56] the figure was 100%; with `C[C@H]1CN(S(=O)(=O)Nc2cccc(CO)n2)CCN1c1ccc(C#N)cn1` [Example 58, (3S)-4-(5-cyanopyridin-2-yl)-N-[6-(hydroxymethyl)pyridin-2-yl]-3-methylpiperazine-1-sulfonamide], 100%; with `CC1CN(c2ccc(C#N)cn2)CCN1S(=O)(=O)Nc1cccc(CO)n1` (stereo not drawn) [Example 59, 4-(5-cyanopyridin-2-yl)-N-[6-(hydroxymethyl)pyridin-2-yl]-2-methylpiperazine-1-sulfonamide], 94.2%.
The same measure, in the same setting: with `CCc1cccc(NS(=O)(=O)N2CCC(c3ncccn3)CC2)n1` [Example 60, N-(6-ethylpyridin-2-yl)-4-pyrimidin-2-ylpiperidine-1-sulfonamide] the figure was 7%.
With `CCc1cccc(NS(=O)(=O)N2CCN(C(C)C)CC2)n1` [Example 61], the inhibition at 0.1 µM worked out at 0%.
Still for that read-out and setting: the same measure for `CCc1cccc(NS(=O)(=O)N2CCN(C3CCCCC3)CC2)n1` [Example 62]: 0%; for `CCc1cccc(NS(=O)(=O)N2CCC3(CCc4cc(Cl)ccc4O3)CC2)n1` [Example 63]: 40%; for `CCc1cccc(NS(=O)(=O)N2CCC3(CCc4cc(C)ccc4O3)CC2)n1` [Example 64]: 5.4%.
The same measure, in the same setting: the same measure for `CCc1cccc(NS(=O)(=O)N2CCC3(CC2)CC(=O)c2cc(Cl)ccc2O3)n1` [Example 65]: 4.7%.
Same read-out and setting: the same measure for `CCc1cccc(NS(=O)(=O)N2CCC3(CCc4ccccc4O3)CC2)n1` [Example 66]: 42.8%; for `CCc1cccc(NS(=O)(=O)N2CCC(c3c[nH]c4ccccc34)CC2)n1` [Example 67]: 62.6%; for `CCc1cccc(NS(=O)(=O)N2C[C@@H]3C[C@H]2CN3c2ccccc2)n1` [Example 69]: 5.6%.

Still in this assay, the particulars now being: read-out: % Inh @ 0.1 mM.
As for `Cc1ccc(C2(C)CN(S(=O)(=O)Nc3cccc(C)n3)CCO2)cc1` (stereo not drawn) [Example 70, 2-methyl-2-(4-methylphenyl)-N-(6-methylpyridin-2-yl)morpholine-4-sulfonamide], the inhibition was 85.3%.
As to `CCc1cccc(NS(=O)(=O)N2CCCC(c3nc(C)no3)C2)n1` (stereo not drawn) [Example 72, N-(6-ethylpyridin-2-yl)-3-(2-methyl-124-oxadiazol-5-yl)piperidine-1-sulfonamide], the inhibition amounted to 56.7%.
Take `CCc1cccc(NS(=O)(=O)N2CCC(c3cccc(C(=O)Nc4ccccn4)c3)CC2)n1` [Example 73, 3-(1-{[(6-ethylpyridin-2-yl)amino]sulfonyl}pipendin-4-yl)-N-pyridin-2-ylbenzamide]: the inhibition was found to be 49.6%.
Still for that read-out and setting: the same measure for `CCc1cccc(NS(=O)(=O)N2CCC(c3cccc(C(N)=O)c3)CC2)n1` [Example 75, 3-(1-{[(6-ethylpyridin-2-yl)amino]sulfonyl}piperidin-4-yl)benzamide]: 45.6%; for `CCc1cccc(NS(=O)(=O)N2CCC(c3ccc(C(=O)NC)cc3)CC2)n1` [Example 76, 4-(1-{[(6-ethylpyridin-2-yl)amino]sulfonyl}piperidin-4-yl)-N-methylbenzamide]: 34.4%; for `CCc1cccc(NS(=O)(=O)N2CCC(c3ccc(C(=O)N4CCOCC4)cc3)CC2)n1` [Example 77, N-(6-ethylpyridin-2-yl)-4-[4-(morpholin-4-ylcarbonyl)phenyl]piperi-din-1-sulfonamide]: 48.4%.
For `CCc1cccc(NS(=O)(=O)N2CCC(c3ccc(C(=O)NC4CC4)cc3)CC2)n1` [Example 78, N-cyclopropyl-4-(1-{[(6-ethylpyridin-2-yl)amino]sulfonyl}piperi-din-4-yl)benzamide], the inhibition was determined as 64.2%.
On the same count and under the same terms, the same measure for `CCc1cccc(NS(=O)(=O)N2CCC(c3cccc(C(=O)N(CC)CC)c3)CC2)n1` [Example 79, NN-diethy-3-(1-{[(6-ethylpyridin-2-yl)amino]sulfonyl}piperidin-4-yl)benzamide]: 51.1%; for `CCc1cccc(NS(=O)(=O)N2CCC(COCc3ccccc3F)CC2)n1` [Example 92, N-(6-ethylpyridin-2-yl)-4-{[(2-fluorobenzyl)oxy]meth-yl}piperidine-1-sulfonamide]: 67.5%.
Same read-out and setting: the same measure for `CCc1cccc(NS(=O)(=O)N2CCC(COCc3cccc(OC)c3)CC2)n1` [Example 94, N-(6-ethylpyridin-2-yl)-4-{[(3-methoxybenzyl)oxy]-methyl}pipendine-1-sulfonamide]: 40.7%; for `CCc1cccc(NS(=O)(=O)N2CCC(n3c(C)nnc3CC)CC2)n1` [Example 107, 4-(3-ethyl-5-methyl-4H-124-triazol-4-yl)-N-(6-ethyl-pyridin-2-yl)piperidine-1-sulfonamide]: 0%; for `CCOCC1CCN(S(=O)(=O)Nc2cccc(CC)n2)CC1` [Example 109, 4-(ethoxymethyl)-N-(6-ethylpyridin-2-yl)pipendine-1-sulfonamide]: 58.7%.
Regarding `CCc1cccc(NS(=O)(=O)N2CCC(Oc3ccc(C#N)cc3OC)CC2)n1` [Example 110, 4-(4-cyano-2-methoxy-phenoxy)-N-(6-ethylpyridin-2-yl)piperidine-1-sulfonamide], the inhibition was 8%.
Same read-out and setting: the same measure for `CCCOC1CCN(S(=O)(=O)Nc2cccc(CC)n2)CC1` [Example 111, N-(6-ethylpyridin-2-yl)-4-propoxypiperidine-1-sulfonamide]: 50.8%; for `Cc1cccc(NS(=O)(=O)N2CCN(c3ccccn3)CC2)n1` [Example 126, N-(6-methylpyridin-2-yl)-4-pyridin-2-ylpiperazine-1-sulfonamide]: 57.8%; for `Cc1cccc(NS(=O)(=O)N2CCCCCC2)n1` [Example 130, N-(6-methylpyridin-2-yl)azepane-1-sulfonamide]: 56.7%.
Still for that read-out and setting: the same measure for `Cc1cccc(NS(=O)(=O)N2CCN(c3cc(C#N)ccn3)CC2)n1` [Example 135, 4-(4-cyanopyridin-2-yl)-N-(6-methylpyridin-2-yl)piperazine-1-sulfonamide]: 29.9%.
